From patent US8821568B2, “Implant modified with non-hydroxylated vitamin D precursors” (Numat Biomedical S.L., priority 2008, dated 2014)

Key:
MC3T3-E1 cells [1] = experiment: Real-time RT-PCR of bone markers, plastic wells; type: cell-based, mouse; conditions: TCP, 2 days
Procedure: To test the effect of the different treatments onto the plastic wells, 96-well plates made of polystyrene were used and the treatments with 7-DHC performed directly onto them. Cells grown onto untreated TCP were added as a control for all the experiments. Cells were seeded at a density of 30,000 cells/cm^2 and they were maintained in α-MEM supplemented with 10% FCS and antibiotics. Culture media was collected after 48 hours, to test cytotoxicity and the production of the hydroxylated forms of vitamin D. Cells were harvested after 2 days of culture using Trizol reagent (Roche Diagnostics, Mannheim, Germany), to analyse early gene expression response of several osteoblast differentiation markers and enzymes involved in vitamin D synthesis using real-time RT-PCR.
RNA was isolated from cells using a monophasic solution of phenol and guanidine thiocyanate (Trizol, Roche Diagnostics, Mannheim, Germany) according to the manufacturer's protocol. RNA was quantified at 260 nm using a Nanodrop spectrophotometer (NanoDrop Technologies, Wilmington, Del., USA).
Total RNA previously isolated was reverse-transcribed to cDNA using High Capacity RNA to cDNA kit (Applied Biosystems, Foster City, Calif.) according to the protocol of the supplier. The same amount of total RNA from each sample was converted into cDNA. Each cDNA was diluted ¼ and aliquots were stored at −20° C. until the PCR reactions were carried out.
Real-time RT-PCR was performed for two reference genes: 18S ribosomal RNA (18S rRNA), glyceraldehyde-3-phosphate dehydrogenase (GAPDH), and 11 target genes alkaline phospathase (ALP), Interleukin 6 (IL-6), Collagen (Coll-1), Osteocalcin (OC), Bone Morphogenetic Protein 2 (BMP-2), Osterix (Osx), Receptor activator of nuclear factor kappa-B ligand (RANKL), Osteoprogesterin (OPG) and genes involved in vitamin D synthesis such as Vitamin D3 25-hydroxylase (CYP27A1), 25 hydroxyvitamin D3-1-alpha hydroxylase (CYP27B1) and 1,25-dihydroxyvitamin D3 24-hydroxylase (CYP24A1).
Real-time PCR were performed in the Lightcycler 480® (Roche Diagnostics, Germany). Each reaction contained 5 μl of LightCycler-FastStart DNA Master^PLUS SYBR Green I (Roche Diagnostics, Mannheim, Germany), 0.5 μM of the sense and antisense specific primers (Table 1) and 3 μl of the cDNA dilution in a final volume of 10 μl. The normal amplification program consisted of a preincubation step for denaturation of the template cDNA (10 min 95° C.), followed by 45 cycles consisting of a denaturation step (10 s 95° C.), an annealing step (10 s 60° C., except for ALP that was 10 s at 65° C., OSX with 10 s at 68° C. and CYP24A1 at 58° C. 10 s) and an extension step (10 s 72° C.). After each cycle, fluorescence was measured at 72° C. Every run included a negative control without cDNA template. To confirm amplification specificity, PCR products were subjected to a melting curve analysis on the LightCycler and subsequently 2% agarose/TAE gel electrophoresis, Tm and amplicon size, respectively.
To allow relative quantification after PCR, real-time efficiencies were calculated from the given slopes in the LightCycler 480 software (Roche Diagnostics, Mannheim, Germany) using serial dilutions. Relative quantification after PCR was calculated by normalizing target gene concentration in each sample by the concentration mean of the two reference genes in given sample using the “advanced relative quantification method” provided by the LightCycler 480 analysis software.

MC3T3-E1 cells [2] = experiment: ALP activity in cell monolayer on coated titanium implants; type: cell-based, mouse; conditions: Ti implants, day 21
Procedure: To test the effect of the surface modification, 96-well plates were used. Ti disks were placed into the wells and treatments and UV-activation were performed over there. Cells grown onto untreated polystyrene tissue culture plastic (TCP) were added as a control for all the experiments. Cells were seeded at a density of 30,000 cells/cm^2 and they were maintained in α-MEM supplemented with 10% FCS and antibiotics. Culture media was collected after 48 hours, to test cytotoxicity and the production of the hydroxylated form of vitamin D, 25-D3. Cells were harvested after two days of culture using Trizol reagent (Roche Diagnostics, Mannheim, Germany), to analyze gene expression of several osteoblast differentiation markers and enzymes involved in vitamin D synthesis using real-time RT-PCR. On the other hand, MC3T3-E1 cells were harvested after 21 days to measure calcium content and ALP activity in the cell monolayer.
Cell monolayer was collected at 21 cell differentiation days and PBS 0.1% Triton X-100 was added to solubilize proteins. Cell lysates were put into freeze/thaw cycles (liquid nitrogen and 37° C. water bath) to improve protein recovery. After centrifugation at 33,000 g for 15 min at 4° C., supernatants acquired were assayed for ALP activity, calcium content and total protein determination. ALP activity was calculated by measuring the cleavage of p-Nitrophenyl Phosphate (pNPP) (Sigma, St. Louis, Mo., USA) in a soluble yellow end product which absorbs at 405 nm. A volume of 100 μl of this substrate was used in combination with 25 μl of each sample supernatant or standard point. The standard curve was prepared from calf intestinal alkaline phosphatase (CIAP, 1 U/μl) (Promega, Madison, Wis., USA) by mixing 1 μl from the stock CIAP with 5 ml of alkaline phosphatase buffer (1:5000 dilution), and then making 1:5 serial dilutions. Once the reaction was carried out, after 30 min in dark at room temperature, it was stopped with the addition of 50 μl of 3 M sodium hydroxide. At this point, absorbance was read at 405 nm.
Total protein was determined using a BCA protein assay kit (Pierce, Rockford, Ill., USA). For the analysis, cell supernatants were diluted 1:1 in PBS 0.1% Triton X-100. Standard curve and samples were analyzed as described by the manufacturer and reading the absorbance at 562 nm.

For `CC(C)CCC[C@@H](C)[C@H]1CC[C@H]2C3=CC=C4C[C@@H](O)CC[C@]4(C)[C@H]3CC[C@]12C` [7-DHC, 7-dehydrocholesterol], the “Collagen type-1 mRNA levels” value (MC3T3-E1 cells [1]; 0.2 nmols UV-treated vs same treatment non UV-irradiated) was “increased mRNA levels”, the “Osteocalcin mRNA levels” value (MC3T3-E1 cells [1]; 2 nmols UV-treated vs same treatment non UV-irradiated) was “statistical differences” and the “Bone morphogenetic protein 2 mRNA levels” value (MC3T3-E1 cells [1]; 2×10^−2 nmols UV-treated vs non-irradiated) was “significantly lower levels”. For the same molecule, the “ALP mRNA levels” value (MC3T3-E1 cells [1]; 2×10^−3 nmols UV-treated vs same treatment non UV-irradiated) was “Higher ALP mRNA levels”, the Osterix expression levels (MC3T3-E1 cells [1]; all UV-treated groups vs non irradiated, significant at 0.2 and 2 nmols) was “Higher expression levels” and the “IL-6 mRNA levels” value (MC3T3-E1 cells [1]; different doses, UV-treated vs UV-untreated) was “No significant differences”. For the same molecule, the “RANKL mRNA levels” value (MC3T3-E1 cells [1]; some UV-untreated samples compared to their control) was “lower”, the ALP activity (MC3T3-E1 cells [2]; UV-treated vs UV-untreated group) was “significant higher ALP activity” and the ALP activity (MC3T3-E1 cells [2]; UV-untreated, percentage of ethanol UV-untreated group set to 100%, mean±SEM) was 44.75±3.50%.
